The source of these data is US20130324597A1, “PHARMACEUTICAL COMPOSITION COMPRISING TRANS-[…] AND ITS USE IN THE TREATMENT OF INFECTIONS” (priority 2010, published 2013).

Data set [1] has as its system Other Gram - rods. The data set can be described thus: MIC of pure components in Mueller Hinton gelose. Type of data set: cell-based. The note with it: Other Gram - rods n = 15. The text has this:
(§1) Following a method allowing the dissolution of the active blend in a Mueller Hinton gelose the MIC has been measured with pure components of the active blends 1 to 9.

Data set [2] deals with Staphylococcus And Enterococcus. The data set can be described thus: MIC of pure components in Mueller Hinton gelose. Type of data set: cell-based. To be noted: Staphylococcus And Enterococcus n = 14.
Source text: as §1

The subject of data set [3] is Enterobacteriaceae. The data set can be described thus: MIC of pure components in Mueller Hinton gelose. Type of data set: cell-based. To be noted: Enterobacteriaceae n = 13.
Source text: as §1

The subject of data set [4] is all the strains. Briefly: MIC of pure components, all strains of Table 9. Type of data set: cell-based. To be noted: strains of Table 9, tested concentrations.
Source text: as §1

Data set [5] concerns E. coli. The data set can be described thus: Treatment of infected mice. Type of data set: in vivo. The note with it: E. coli challenge, 7 days observation; reference antibiotic, dose not given. The procedure: (§2) The test is performed on Balb/c mice aged 10 to 12 weeks.
(§3) They are infected by intraperitoneal injection of 4.10^7 Staphylococcus aureus, methicilline resistant, in a growing phase or with E. coli.

Data set [6] concerns VIH. Briefly: Activity on VIH (survival of lymphoid cells T4, P24 dosage). Type of data set: cell-based. On the set-up: unit of the concentration uncertain.
For data set [7], the system named is Cocci G+. The data set can be described thus: Killing-curves, log reduction time. Type of data set: cell-based. The note with it: at MIC × 4. The text has this: (§4) Results are expressed in minutes necessary to reduce bacterial counts by 1 log.
Data set [8] deals with Enterobacteria. Briefly: Killing-curves, log reduction time. Type of data set: cell-based. To be noted: at MIC × 4.
Source text: as §4

For data set [9], the system named is Other gram−. The data set can be described thus: Killing-curves, log reduction time. Type of data set: cell-based. The note with it: at MIC × 4.
Source text: as §4

Data set [10] relates to All strains (60 strains). The data set can be described thus: Killing-curves, log reduction time. Type of data set: cell-based. To be noted: at MIC × 4.
Source text: as §4

Data set [11] deals with Staphylococcus. Briefly: MIC in Mueller Hinton gelose. Type of data set: cell-based.
Source text: (§5) Following a method allowing the dissolution of the active blend in a Mueller Hinton gelose the following MIC has been measured with pure trans-cinnamaldehyde (CNM) and with the active blends 1 to 8 disclosed in table 1.
as §1

Data set [12] deals with E. aerogenes. Briefly: MIC in Mueller Hinton gelose. To be noted: Enterobacter aerogenes 09004. Type of data set: cell-based.
Source text: as §5, §1

Data set [13] deals with Pseudomonas. The data set can be described thus: MIC in Mueller Hinton gelose. Type of data set: cell-based.
Source text: as §5, §1

Data set [14] relates to P. aeruginosa. Briefly: MIC in Mueller Hinton gelose. Type of data set: cell-based, Pseudomonas aeruginosa.
Source text: as §5, §1

Data set [15] relates to Enterococcus. The data set can be described thus: MIC in Mueller Hinton gelose. Type of data set: cell-based, Enterococcus sp.
Source text: as §5, §1

Data set [16] concerns MRSA. To be noted: bibliographic data on the main compound; cited from earlier work.
The test system of data set [17] is A baumanii. Briefly: MIC in Mueller Hinton gelose. Type of data set: cell-based, Acinetobacter baumanii. The note with it: A baumanii 09010.
Source text: as §5, §1

Data set [18] concerns E. faecium. The data set can be described thus: MIC in Mueller Hinton gelose. Type of data set: cell-based, Enterococcus faecium.
Source text: as §5, §1

In data set [19] the test system is E. coli. The data set can be described thus: MIC in Mueller Hinton gelose. Type of data set: cell-based, Escherichia coli.
Source text: as §5, §1

In data set [20] the test system is Staphylococcus aureus, methicilline resistant. The data set can be described thus: Treatment of infected mice. To be noted: MRSA challenge, 10 days observation; reference antibiotic, dose not given. Type of data set: in vivo, Balb/c mice. The procedure: as §2, §3
Where [21] appears, read: concentration 0.0005 (unit uncertain).
[22] abbreviates: concentration 0.005 (unit uncertain).
The mark [23] stands for this setting: concentration 0.05 (unit uncertain).
[24] abbreviates: concentration 0.1 (unit uncertain).
The mark [25] stands for this setting: concentration 0.5 (unit uncertain).
[26] abbreviates: concentration 5 (unit uncertain).

As to `COc1ccccc1/C=C/C=O` [Trans-methoxycinnamaldehyde, trans-2-methoxycinnamaldehyde], the MIC Range in data set [1], in [2] and in data set [3] was over 10000 µg/mL each time.
For the compound `CC(=O)OCC=Cc1ccccc1` [Cinnamyl acetate, cinnamyl acetate], in data set [1], the MIC 50 is over 10000 µg/mL and the MIC 90 is over 10000 µg/mL. Besides, in data set [2], the MIC 50 is over 10000 µg/mL and the MIC 90 was over 10000 µg/mL. For the same compound, in data set [3], the MIC 50 was over 10000 µg/mL, the MIC 90 was over 10000 µg/mL and the MIC Range was over 10000 µg/mL. In data set [4], the “activity / spectrum in words” value is listed as “intermediate”.
As to `C=C1CC/C=C(\C)CC[C@@H]2[C@@H]1CC2(C)C` [Caryophyllene, beta-caryophyllene], the MIC 50 in data set [1], in [2] and in data set [3] was over 10000 µg/mL throughout. Also, the MIC 90 in [1], in data set [2] and in [3] was over 10000 µg/mL each time. The MIC Range in data set [1] and in [3] was over 10000 µg/mL throughout. The “activity / spectrum in words” value in [4] is listed as “narrow”.
In the case of `CC1(C)S[C@@H]2[C@H](NC(=O)[C@H](N)c3ccc(O)cc3)C(=O)N2[C@H]1C(=O)O` [Amoxicillin], in data set [5], the “% survival” value came out at 100%; the Final score stood at 6; the “Final score, % vs placebo” value is given as 10.70%; the Total health score came out at 678. For the same compound, in data set [5], the “Total health score, % vs placebo” value worked out at 38.93%; the Total weight is 849; the “Total weight, % vs placebo” value is recorded as 23.58%.
Consider `Cc1cn([C@H]2C[C@H](N=[N+]=[N-])[C@@H](CO)O2)c(=O)[nH]c1=O` [AZT], for which the “% Survival (lymphoid cells T4)” value in data set [6] (setting [21]) was determined as 10.0%; in [6] (setting [22]), 7.0%; in data set [6] (setting [23]) it was 36.0%; in [6] (setting [24]), 86.0%; in data set [6] (setting [25]), 97.8%; in [6] (setting [26]), 108.7%. The “Dosage P24 (% inhibition vs T+ of the plate)” value in data set [6] (setting [21]) is recorded as 39%; in data set [6] (setting [22]), 48%; in data set [6] (setting [23]), 80%; in data set [6] (setting [24]) it was 99%; in [6] (setting [25]), 100%; in [6] (setting [26]), 100%.
With `CC12CCC(CC1)C(C)(C)O2` [Cineole, cineole], the MIC Range in [1], in [2] and in data set [3] was over 10000 µg/mL in each case.
Consider `O=C/C=C/c1ccccc1` [CNM, trans-cinnamaldehyde], for which the “Mean Log reduction time” value in data set [7] worked out at 195 min; in [8] it was 72 min; in data set [9], 95 min; in data set [10], 111 min. In addition, the MIC in [11] (Staphylococcus 8143) is listed as 0.031%; in data set [11] (Staphylococcus 8146) it was 0.031%; in data set [11] (Staphylococcus 8147), 0.031%; in data set [11] (Staphylococcus 8148), 0.031%; in data set [11] (Staphylococcus 8149), 0.016%; in data set [11] (Staphylococcus 8237), 0.008%. For the same compound, the MIC came out at 0.031% in data set [11] (Staphylococcus 8238); 0.031% in data set [11] (Staphylococcus 8239); 0.031% in data set [11] (Staphylococcus 8240); 0.031% in data set [11] (Staphylococcus 8241); 0.063% in data set [12]; 0.063% in data set [13] (Pseudomonas 8127). Moreover, the MIC stood at 0.063% in data set [13] (Pseudomonas 8128); 0.063% in data set [13] (Pseudomonas 8129*); 0.125% in data set [13] (Pseudomonas 8130*); 0.125% in data set [13] (Pseudomonas 8131*); 0.125% in data set [13] (Pseudomonas 8132*); 0.125% in [13] (Pseudomonas 8133). For the same compound, the MIC in [13] (Pseudomonas 8134) is listed as 0.016%; in [13] (Pseudomonas 8135*) it was 0.03%; in [13] (Pseudomonas 8136*), 0.016%; in [14] (PS aeruginosa 09007), 0.063%; in data set [14] (PS aeruginosa ATCC) it was 0.031%; in data set [14] (Ps aeruginosa 09008) it was 0.016%. Besides, the MIC in data set [15] (Enterococcus 8152) came to 0.031%; in [15] (Enterococcus 8153), 0.031%; in [17] it was 0.016%; in data set [18] (Enterococcus faecium 09001), 0.031%; in data set [18] (Enterococcus faecium 09002), 0.031%; in [19] (E. coli 8137) it was 0.016%. Besides, the MIC in data set [19] (E. coli 8138) is 0.016%; in [19] (E. coli 8141), 0.016%; in data set [19] (E. coli 8142) it was 0.016%; in data set [19] (E. coli 8150), 0.031%; in data set [19] (E. coli 8151), 0.031%; in data set [19] (E. coli 8154) it was 0.031%. The MIC is reported as 0.031% in data set [19] (E. coli 8155); 0.031% in [19] (E. coli 8156); 0.031% in data set [19] (E. coli 8157); 0.063% in [19] (E. coli 09003); 0.015% in [19] (E. coli ATCC 25922). Further, the values for the MIC 50 in [1], in data set [2] and in data set [3] were 600 µg/mL, 150 µg/mL and 150 µg/mL, respectively. Also, the MIC 90 in [1] came out at 1250 µg/mL; in data set [2], 300 µg/mL; in data set [3], 600 µg/mL. The “activity / spectrum in words” value in data set [4] was “highly effective on all the strains”. Also, the “elimination, bibliographic data” value in [16] was 1.7 h.
For the compound `O=C(OCc1ccccc1)c1ccccc1` [Benzyl benzoate, benzyl benzoate], the MIC Range in data set [1], in data set [2] and in [3] was over 10000 µg/mL each time.
Turning to `C=CC(C)(O)CCC=C(C)C` (centres unmarked) [Linalool, linalool], the MIC 50 in [1] was over 10000 µg/mL; in data set [2], 2500 µg/mL; in [3], 2500 µg/mL. In addition, the MIC 90 was over 10000 µg/mL in data set [1], 10000 µg/mL in data set [2] and 10000 µg/mL in data set [3]. Moreover, in [4], the “activity / spectrum in words” value is recorded as “wide”.
On to `CN[C@H](CC(C)C)C(=O)N[C@H]1C(=O)N[C@@H](CC(N)=O)C(=O)N[C@H]2C(=O)N[C@H]3C(=O)N[C@H](C(=O)N[C@H](C(=O)O)c4cc(O)cc(O)c4-c4cc3ccc4O)[C@H](O)c3ccc(c(Cl)c3)Oc3cc2cc(c3O[C@@H]2O[C@H](CO)[C@@H](O)[C@H](O)[C@H]2O[C@H]2C[C@](C)(N)[C@H](O)[C@H](C)O2)Oc2ccc(cc2Cl)[C@H]1O` [Vancomicin], for which, in [20], the “% survival” value is recorded as 100%; the Final score is 10; the “Final score, % vs placebo” value was determined as 42.86%; the Total weight turned out to be 1110. Also, in data set [20], the “Total weight, % vs placebo” value is recorded as 0.63%.
